PubChem BioAssay AID192 (DTP/NCI, 2004)
Values joined by “and” are separate entries in the source; they are usually repeats but may differ in a detail not shown here. Equal entries are not always repeated. Toxic doses and inconclusive results are not listed. Rule for the calls: active = survival T/C of 150% or more; inactive = T/C below 125% in these data.

Tested on: BDF1 mice, B16 melanoma ip, median survival T/C
Experiment: NCI In Vivo Anticancer Drug Screen. Data for tumor model B16 Melanoma (intraperitoneal) in B6D2F1 (BDF1) mice
Conditions: endpoint: median survival time, higher = longer survival
Outline: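 Compounds were tested in mice carrying transplantable tumors. Survival or tumor size was recorded, and each value is the treated-group measurement (T) divided by that of the vehicle-treated control group (C).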

[1] = dose: 100.0 mg/kg/injection, schedule: Q01DX009 (ip), vehicle: saline with Tween-80
[2] = dose: 25.0 mg/kg/injection, schedule: Q01DX009 (ip), vehicle: saline
[3] = dose: 25.0 mg/kg/injection, schedule: Q01DX009 (ip), vehicle: saline with Tween-80
[4] = dose: 50.0 mg/kg/injection, schedule: Q01DX009 (ip), vehicle: saline with Tween-80
[5] = dose: 50.0 mg/kg/injection, schedule: Q01DX009 (ip), vehicle: saline
[6] = dose: 100.0 mg/kg/injection, schedule: Q01DX009 (ip), vehicle: saline
[7] = dose: 12.5 mg/kg/injection, schedule: Q01DX009 (ip), vehicle: saline with Tween-80

Measured: T/C

CCCCCCCCCCCCCCC/C([O-])=N/[N+](C)(C)CC(C)O (stereo not given)
inactive: dose: 25.0 mg/kg/injection, schedule: Q01DX001 (ip), vehicle: saline 97 % of control | dose: 50.0 mg/kg/injection, schedule: Q01DX001 (ip), vehicle: saline 96 % of control | dose: 100.0 mg/kg/injection, schedule: Q01DX001 (ip), vehicle: saline 95 % of control | dose: 200.0 mg/kg/injection, schedule: Q01DX001 (ip), vehicle: saline 95 % of control

CN(C)c1ccc(C(=C2C=CC(=[N+](C)C)C=C2)c2ccc(N(C)C)cc2)cc1 (tested in a mixture with another compound)
inactive: dose: 0.31 mg/kg/injection, schedule: Q01DX009 (ip), vehicle: saline with Tween-80 123 % of control | dose: 0.62 mg/kg/injection, schedule: Q01DX009 (ip), vehicle: saline with Tween-80 109 % of control | dose: 1.25 mg/kg/injection, schedule: Q01DX009 (ip), vehicle: saline with Tween-80 104 % of control | dose: 2.5 mg/kg/injection, schedule: Q01DX009 (ip), vehicle: saline with Tween-80 116 % of control

CN(C)N=Nc1c(Cl)cc(Cl)cc1C(N)=O
inactive: [1] 119 % of control | dose: 200.0 mg/kg/injection, schedule: Q01DX009 (ip), vehicle: saline with Tween-80 115 % of control

C=C1C(=O)OC2CC1CCC1(C)OC1CCC(C)=CCCC2(C)O (stereo not given)
inactive: dose: 0.04 mg/kg/injection, schedule: Q01DX009 (ip), vehicle: Klucel (hydroxypropylcellulose) (HPC) 90 % of control | dose: 0.09 mg/kg/injection, schedule: Q01DX009 (ip), vehicle: Klucel (hydroxypropylcellulose) (HPC) 91 % of control | dose: 1.8 mg/kg/injection, schedule: Q01DX009 (ip), vehicle: Klucel (hydroxypropylcellulose) (HPC) 86 % of control and 91 % of control | dose: 7.5 mg/kg/injection, schedule: Q01DX009 (ip), vehicle: Klucel (hydroxypropylcellulose) (HPC) 98 % of control

C/C=C(/C)C(=O)O[C@H]1CCN2CC=C(COC(=O)[C@@](O)([C@H](C)OC)C(C)(C)O)[C@H]12
inactive: dose: 12.5 mg/kg/injection, schedule: Q01DX009 (ip), vehicle: saline 114 % of control | [2] 104 % of control

O=C(O)c1cc(C(=O)O)cc([N+](=O)[O-])c1
inactive: [3] 97 % of control | [4] 100 % of control

CCCC(=O)OCC1OC(n2cnc3c(=S)nc[nH]c32)C(OC(=O)CCC)C1OC(=O)CCC (stereo not given)
inactive: [3] 105 % of control | [4] 90 % of control

CNC1C(O)C(NC)C2OC3(O)C(=O)CC(C)OC3OC2C1O (stereo not given)
inactive: [2] 95 % of control | [5] 100 % of control | [6] 109 % of control

Cn1c2c(c3ccccc3c1=O)C(=O)c1ccccc1-2
inactive: [3] 97 % of control | [4] 89 % of control

O=C1Nc2ccccc2/C1=C\c1ccccc1O
inactive: dose: 1.56 mg/kg/injection, schedule: Q01DX009 (ip), vehicle: Klucel (hydroxypropylcellulose) (HPC) 106 % of control | dose: 3.12 mg/kg/injection, schedule: Q01DX009 (ip), vehicle: Klucel (hydroxypropylcellulose) (HPC) 106 % of control | dose: 6.25 mg/kg/injection, schedule: Q01DX009 (ip), vehicle: Klucel (hydroxypropylcellulose) (HPC) 91 % of control | dose: 12.5 mg/kg/injection, schedule: Q01DX009 (ip), vehicle: Klucel (hydroxypropylcellulose) (HPC) 105 % of control | dose: 25.0 mg/kg/injection, schedule: Q01DX009 (ip), vehicle: Klucel (hydroxypropylcellulose) (HPC) 89 % of control

Oc1ccccc1O.[O-]c1ccccc1[O-].[O-]c1ccccc1[O-].[O]=[V+2]
inactive: dose: 2.5 mg/kg/injection, schedule: Q01DX009 (ip), vehicle: saline 88 % of control | dose: 5.0 mg/kg/injection, schedule: Q01DX009 (ip), vehicle: saline 91 % of control | dose: 10.0 mg/kg/injection, schedule: Q01DX009 (ip), vehicle: saline 97 % of control

COC1=C(OC)C(=O)C(SC/C=C(\C)CCCC(C)CCCC(C)CCCC(C)C)=CC1=O (stereo not given)
inactive: [7] 108 % of control | [3] 105 % of control | [4] 110 % of control | [1] 115 % of control

CCCCCCCCCNC(=O)Nc1cccc(Cl)c1C
inactive: [4] 99 % of control | [1] 91 % of control

CN(C)CC1CCCCN1 (stereo not given)
inactive: [5] 100 % of control | [6] 100 % of control | dose: 200.0 mg/kg/injection, schedule: Q01DX009 (ip), vehicle: saline 100 % of control

ClC1=C(Cl)C2(Cl)C(COc3ccc(Cl)cc3)CC1(Cl)C2(Cl)Cl (stereo not given)
inactive: [7] 104 % of control | [3] 88 % of control | [4] 95 % of control
